Measurements from ChEMBL document CHEMBL1201862, “PubChem BioAssay data set” (2004).
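How tested: cells in 96-well plates exposed to compound for 48 hours at five concentrations. GI50 = concentration required for 50% inhibition of growth.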 Calls of active or inactive are those of the source. Cut-off read from the data, not from the text of the source: active = GI50 up to about 1.1 µM and inactive = higher.

Key:
Experiment in all cases: DTP human tumour cell line panel, 48 h
COLO 205 = test system: COLO 205
DMS-114 = test system: DMS-114
HT-29 = test system: HT-29
IGROV-1 = test system: IGROV-1
NCI-H226 = test system: NCI-H226
OVCAR-3 = test system: OVCAR-3
OVCAR-4 = test system: OVCAR-4
OVCAR-5 = test system: OVCAR-5
OVCAR-8 = test system: OVCAR-8
RPMI-8226 = test system: RPMI-8226
SK-MEL-28 = test system: SK-MEL-28
SK-MEL-2 = test system: SK-MEL-2
SK-OV-3 = test system: SK-OV-3
SN12C = test system: SN12C
SNB-19 = test system: SNB-19
SNB-78 = test system: SNB-78
XF498 = test system: XF498
786-0 = test system: 786-0
A549 = test system: A549
ACHN = test system: ACHN
CAKI-1 = test system: CAKI-1
DLD-1 = test system: DLD-1
DMS-273 = test system: DMS-273
HCC 2998 = test system: HCC 2998
HCT-116 = test system: HCT-116
HCT-15 = test system: HCT-15
HL-60 = test system: HL-60
HOP-62 = test system: HOP-62
HOP-92 = test system: HOP-92
K562 = test system: K562
KM-20L2 = test system: KM-20L2
KM12 = test system: KM12
LOX IMVI = test system: LOX IMVI
LXFL 529 = test system: LXFL 529
M14 = test system: M14
M19-MEL = test system: M19-MEL
MOLT-4 = test system: MOLT-4
Malme-3M = test system: Malme-3M
NCI-H23 = test system: NCI-H23
NCI-H460 = test system: NCI-H460
NCI-H522 = test system: NCI-H522
SF-268 = test system: SF-268
SF-295 = test system: SF-295
SF-539 = test system: SF-539
SNB-75 = test system: SNB-75
SR = test system: SR
SW-620 = test system: SW-620
TK-10 = test system: TK-10
U-251 = test system: U-251
UACC-257 = test system: UACC-257
UACC-62 = test system: UACC-62
UO-31 = test system: UO-31
A498 = test system: A498
CCRF-CEM = test system: CCRF-CEM
EKVX = test system: EKVX
HOP-18 = test system: HOP-18
RXF 393 = test system: RXF 393
SK-MEL-5 = test system: SK-MEL-5

COc1ccc2c([nH]c3cc(O)c(C)cc32)c1CC=C(C)C
GI50 (COLO 205): > 25 µM (inactive) | GI50 (DMS-114): 20.9 µM (inactive) | GI50 (HT-29): 7.24 µM (inactive) | GI50 (IGROV-1): 23.1 µM (inactive) | GI50 (NCI-H226): > 25 µM (inactive) | GI50 (OVCAR-3): 5.32 µM (inactive) | GI50 (OVCAR-4): 22.5 µM (inactive) | GI50 (OVCAR-5): > 25 µM (inactive) | GI50 (OVCAR-8): 4.42 µM (inactive) | GI50 (RPMI-8226): 8.38 µM (inactive) | GI50 (SK-MEL-28): > 25 µM (inactive) | GI50 (SK-MEL-2): > 25 µM (inactive) | GI50 (SK-OV-3): > 25 µM (inactive) | GI50 (SN12C): 5.04 µM (inactive) | GI50 (SNB-19): > 25 µM (inactive) | GI50 (SNB-78): 11.5 µM (inactive) | GI50 (XF498): > 25 µM (inactive)

O=C(COc1ccccc1Cl)N1N=C(c2ccccc2)CC1(O)c1ccccc1 (configuration not stated)
GI50 (786-0): 17.3 µM (inactive) | GI50 (A549): 16.9 µM (inactive) | GI50 (ACHN): 17.1 µM (inactive) | GI50 (CAKI-1): 29 µM (inactive) | GI50 (COLO 205): 18 µM (inactive) | GI50 (DLD-1): 18.5 µM (inactive) | GI50 (DMS-273): 16.7 µM (inactive) | GI50 (HCC 2998): 15.9 µM (inactive) | GI50 (HCT-116): 16.4 µM (inactive) | GI50 (HCT-15): 12.9 µM | GI50 (HL-60): 9.42 µM (inactive) | GI50 (HOP-62): 15.1 µM (inactive) | GI50 (HOP-92): 22.3 µM (inactive) | GI50 (HT-29): 17 µM (inactive) | GI50 (IGROV-1): 17.9 µM (inactive) | GI50 (K562): 14.3 µM (inactive) | GI50 (KM-20L2): 16.1 µM (inactive) | GI50 (KM12): 21.2 µM (inactive) | GI50 (LOX IMVI): 16.7 µM (inactive) | GI50 (LXFL 529): 17.1 µM (inactive) | GI50 (M14): 17 µM (inactive) | GI50 (M19-MEL): 19 µM (inactive) | GI50 (MOLT-4): 7.43 µM (inactive) | GI50 (Malme-3M): 14.9 µM (inactive) | GI50 (NCI-H226): 18.5 µM (inactive) | GI50 (NCI-H23): 12.1 µM (inactive) | GI50 (NCI-H460): 18 µM (inactive) | GI50 (NCI-H522): 41.9 µM (inactive) | GI50 (OVCAR-3): 15.9 µM (inactive) | GI50 (OVCAR-4): 11.3 µM (inactive) | GI50 (OVCAR-5): 19.4 µM (inactive) | GI50 (OVCAR-8): 16.6 µM (inactive) | GI50 (RPMI-8226): 8.17 µM (inactive) | GI50 (SF-268): 24.6 µM (inactive) | GI50 (SF-295): 20.5 µM (inactive) | GI50 (SF-539): 18.9 µM (inactive) | GI50 (SK-MEL-28): 17.4 µM (inactive) | GI50 (SK-MEL-2): 18.9 µM (inactive) | GI50 (SK-OV-3): 14.9 µM (inactive) | GI50 (SN12C): 12.9 µM (inactive) | GI50 (SNB-19): 16.4 µM (inactive) | GI50 (SNB-75): 47.6 µM (inactive) | GI50 (SNB-78): 20.4 µM (inactive) | GI50 (SR): 4.61 µM (inactive) | GI50 (SW-620): 26.5 µM (inactive) | GI50 (TK-10): 17.1 µM (inactive) | GI50 (U-251): 11.7 µM (inactive) | GI50 (UACC-257): 20.7 µM (inactive) | GI50 (UACC-62): 12.8 µM (inactive) | GI50 (UO-31): 10.1 µM (inactive) | GI50 (XF498): 17.6 µM (inactive)

O=C(Nc1nc2ncn(CCOC(=O)c3ccccc3)c2c(=S)[nH]1)c1ccccc1
GI50 (786-0): 62.5 µM (inactive) | GI50 (A498): 95.7 µM (inactive) | GI50 (A549): 66.2 µM (inactive) | GI50 (ACHN): > 100 µM (inactive) | GI50 (CAKI-1): > 100 µM (inactive) | GI50 (CCRF-CEM): > 100 µM (inactive) | GI50 (COLO 205): > 100 µM (inactive) | GI50 (DLD-1): > 100 µM (inactive) | GI50 (DMS-114): 64.4 µM (inactive) | GI50 (DMS-273): 50.9 µM (inactive) | GI50 (EKVX): > 100 µM (inactive) | GI50 (HCC 2998): > 100 µM (inactive) | GI50 (HCT-116): > 100 µM (inactive) | GI50 (HCT-15): > 100 µM | GI50 (HL-60): > 100 µM (inactive) | GI50 (HOP-18): > 100 µM (inactive) | GI50 (HOP-62): 28.2 µM (inactive) | GI50 (HOP-92): 42.7 µM (inactive) | GI50 (HT-29): > 100 µM (inactive) | GI50 (IGROV-1): > 100 µM (inactive) | GI50 (K562): 60.8 µM (inactive) | GI50 (KM-20L2): > 100 µM (inactive) | GI50 (KM12): > 100 µM (inactive) | GI50 (LOX IMVI): > 100 µM (inactive) | GI50 (LXFL 529): 49.3 µM (inactive) | GI50 (M14): > 100 µM (inactive) | GI50 (M19-MEL): 50.4 µM (inactive) | GI50 (Malme-3M): 42.5 µM (inactive) | GI50 (NCI-H226): 47.5 µM (inactive) | GI50 (NCI-H460): 48.1 µM (inactive) | GI50 (NCI-H522): 21 µM (inactive) | GI50 (OVCAR-3): 43.1 µM (inactive) | GI50 (OVCAR-4): 23.5 µM (inactive) | GI50 (OVCAR-5): > 100 µM (inactive) | GI50 (OVCAR-8): 45.6 µM (inactive) | GI50 (RPMI-8226): > 100 µM (inactive) | GI50 (RXF 393): 18.6 µM (inactive) | GI50 (SF-268): 13.5 µM (inactive) | GI50 (SF-295): 45 µM (inactive) | GI50 (SF-539): 30.5 µM (inactive) | GI50 (SK-MEL-28): 42.3 µM (inactive) | GI50 (SK-MEL-2): 41.6 µM (inactive) | GI50 (SK-MEL-5): > 100 µM (inactive) | GI50 (SK-OV-3): > 100 µM (inactive) | GI50 (SN12C): > 100 µM (inactive) | GI50 (SNB-19): 71.9 µM (inactive) | GI50 (SNB-75): 23.8 µM (inactive) | GI50 (SNB-78): 44.1 µM (inactive) | GI50 (SW-620): > 100 µM (inactive) | GI50 (TK-10): > 100 µM (inactive) | GI50 (U-251): 31.8 µM (inactive) | GI50 (UACC-257): 55.8 µM (inactive) | GI50 (UACC-62): 56.2 µM (inactive) | GI50 (UO-31): 61.7 µM (inactive)
